22 compounds from US11834451B2 (priority 2021, dated 2023) can be followed below.

Where two headings read alike, the source gives them in different places. Where only a bound is given, the exact number is not on record here.

Data set [1] concerns CVB3 Nancy virus. Briefly: microbe, parasite or virus in culture. The data set is classed as cell-based, coxsackievirus B3 (CVB3). The following applies: Enterovirus B, CVB3, Vero, read-out: EC50, Anti-CVB3 in Vero cells.
Data set [2] relates to EV-D68, EV-A71, and CVB3. The data set can be described thus: organism not typed. The data set is classed as cell-based.
A short description of data set [3]: in vitro. The following applies: human.
Data set [4] deals with EV-A71. Briefly: microbe, parasite or virus in culture. The following applies: Enterovirus A, EVA71, RD. Type of data set: cell-based, enterovirus A71 (EV-A71).
In data set [5] the test system is EV-D68. The data set can be described thus: microbe, parasite or virus in culture. Type of data set: cell-based, enterovirus D68 (EV-D68). The following applies: Enterovirus D, EVD68, RD.
The test system of data set [6] is Vero cells. The following applies: African green monkey.
Setting [7] is: read-out: EC50, Anti-EV-A71 Tainan/4643/1998 in RD cells.
[8] abbreviates: read-out: EC50, Anti-EV-D68 US/KY/14-18953 in RD cells.
The mark [9] stands for this setting: CC50, in RD cells (Anti-EV-A71).

For the compound `Cc1cc(C(=O)NCCN(C)C)c2c(C)nn(C(C)(C)C)c2n1` [Compound 19, 1-tert-butyl-N-[2-(dimethylamino)ethyl]-3,6-dimethyl-1H-pyrazolo[3,4-b]pyridine-4-carboxamide], the EC50 in data set [1] is 2.1 µM; in data set [2] (RD, read-out: EC50 values range against all EV-D68 and EV-A71 strains tested), 0.4 to 7.4 µM; in data set [4] (setting [7]), 7.4 µM; in data set [4] (read-out: EC50, EV-A71 A71 MP4), 2 µM; in data set [4] (read-out: EC50, EV-A71 Tainan/4643/1998), 7.4 µM; in data set [4] (read-out: EC50, EV-A71 USA/CT/2016-19519), 1.3 µM. Further, the EC50 in data set [5] (setting [8]) turned out to be 1 µM; in data set [5] (read-out: EC50, EV-D68 US/IL/14-18952 (Clade B2)) it was 0.7 µM; in data set [5] (read-out: EC50, EV-D68 US/IL/14-18956 (Clade B2)), 0.4 µM; in data set [5] (read-out: EC50, EV-D68 US/KY/14-18953 (Clade D)), 1 µM; in data set [5] (read-out: EC50, EV-D68 US/MO/14-18947 (Clade B1)), 0.4 µM; in data set [5] (read-out: EC50, EV-D68 US/MO/14-18949 (Clade B1)), 0.7 µM. In addition, the “selectivity index across EV-D68 and EV-A71 strains tested” value in data set [2] is above 100. Further, the CC50 in data set [3] (CC50 (EV-A71 A71 MP4 row group)), in data set [3] (CC50 (EV-A71 Tainan/4643/1998)) and in data set [3] (CC50 (EV-A71 USA/CT/2016-19519)) was 236 µM throughout.
Regarding `CC(C)n1ncc2c(C(=O)NCCN)cc(C(C)(C)C)nc21` [Compound 11b, N-(2-aminoethyl)-6-tert-butyl-1-(propan-2-yl)-1H-pyrazolo[3,4-b]pyridine-4-carboxamide], the EC50 came out at 0.1 µM in data set [1], 0.2 µM in data set [4] (setting [7]) and 0.1 µM in data set [5] (setting [8]). Moreover, the CC50 in data set [3] (setting [9]) stood at 24.6 µM.
Turning to `CC(C)n1ncc2c(C(=O)NCCN3CCCC3)cc(C3CC3)nc21` [Compound 7b, 6-cyclopropyl-1-(propan-2-yl)-N-[2-(pyrrolidin-1-yl)ethyl]-1H-pyrazolo[3,4-b]pyridine-4-carboxamide], the EC50 in data set [1] worked out at 0.2 µM; in data set [4] (setting [7]) it was 0.2 µM; in data set [5] (setting [8]), 0.1 µM. In data set [3] (setting [9]), the CC50 was found to be 46.5 µM.
As to `CC(C)n1ncc2c(C(=O)NC3CNC3)cc(C3CC3)nc21` [Compound 7e, N-(azetidin-3-yl)-6-cyclopropyl-1-(propan-2-yl)-1H-pyrazolo[3,4-b]pyridine-4-carboxamide], the EC50 in data set [5] (setting [8]) turned out to be 1.4 µM.
For `CC(C)n1ncc2c(C(=O)NCCN(C)C)cc(C(C)(C)C)nc21` [Compound 11a, 6-tert-butyl-N-[2-(dimethylamino)ethyl]-1-(propan-2-yl)-1H-pyrazolo[3,4-b]pyridine-4-carboxamide], the figures for the EC50 in data set [1], in data set [4] (setting [7]) and in data set [5] (setting [8]) were 0.1 µM, 0.04 µM and 0.1 µM, respectively. Further, in data set [3] (setting [9]), the CC50 worked out at 31.4 µM.
In the case of `CCN(CC)CCCNC(=O)c1cc(C2CC2)nc2c1cnn2C(C)C` [Compound 7k, 6-cyclopropyl-N-[3-(diethylamino)propyl]-1-(propan-2-yl)-1H-pyrazolo[3,4-b]pyridine-4-carboxamide], the EC50 in data set [1] was determined as 1.7 µM; in data set [4] (setting [7]) it was 6.1 µM; in data set [5] (setting [8]), 1.9 µM.
In the case of `Cc1cc(C(=O)NCCN(C)C)c2cnn(C3CCCC3)c2n1` [Compound 13, 1-cyclopentyl-N-[2-(dimethylamino)ethyl]-6-methyl-1H-pyrazolo[3,4-b]pyridine-4-carboxamide], the EC50 in data set [5] (setting [8]) amounted to 11.1 µM.
With `CC(C)n1ncc2c(C(=O)NC3CCN(C)C3)cc(C3CC3)nc21` (stereo not drawn) [Compound 7g, 6-cyclopropyl-N-(1-methylpyrrolidin-3-yl)-1-(propan-2-yl)-1H-pyrazolo[3,4-b]pyridine-4-carboxamide], the EC50 in data set [1] was determined as 0.1 µM; in data set [2] (read-out: EC50 (text summary, virus not singled out)), 0.1 µM; in data set [4] (setting [7]) it was 0.1 µM; in data set [5] (setting [8]), 0.1 µM. The CC50 in data set [3] (setting [9]) was found to be 20.7 µM; in data set [3] (CC50, in RD cells (Anti-EV-D68)), 20.7 µM.
In the case of `CCCn1ncc2c(C(=O)NCCN(C)C)cc(C3CC3)nc21` [Compound 20, 6-cyclopropyl-N-[2-(dimethylamino)ethyl]-1-propyl-1H-pyrazolo[3,4-b]pyridine-4-carboxamide], the EC50 turned out to be 2 µM in data set [1], 2 µM in data set [4] (setting [7]) and 1.2 µM in data set [5] (setting [8]). The “EC50 values in words (summary across viruses)” value (from here on “EC50 values in words”) in data set [2] is “low single-digit or submicromolar”. This compound also returned a CC50 in data set [3] (setting [9]) of 57.7 µM.
With `CC(CN)NC(=O)c1cc(C(C)C)nc2c1cnn2C(C)C` (stereo not drawn) [Compound 10f, N-(1-aminopropan-2-yl)-1,6-bis(propan-2-yl)-1H-pyrazolo[3,4-b]pyridine-4-carboxamide], the EC50 in data set [1] was determined as 0.6 µM; in data set [4] (setting [7]) it was 0.5 µM; in data set [5] (setting [8]) it was 0.4 µM. The compound also came in with a CC50 in data set [3] (setting [9]) of 118 µM.
`CCCn1ncc2c(C(=O)NCCN(C)C)cc(C)nc21` [Compound 14, N-[2-(dimethylamino)ethyl]-6-methyl-1-propyl-1H-pyrazolo[3,4-b]pyridine-4-carboxamide]: the EC50 in data set [5] (setting [8]) amounted to 48.4 µM.
With `CC(C)n1ncc2c(C(=O)NCCCN(C)C)cc(C3CC3)nc21` [Compound 7l, 6-cyclopropyl-N-[3-(dimethylamino)propyl]-1-(propan-2-yl)-1H-pyrazolo[3,4-b]pyridine-4-carboxamide], the figures for the EC50 in data set [1], in data set [4] (setting [7]) and in data set [5] (setting [8]) were 0.4 µM, 1.8 µM and 1.2 µM, respectively. Moreover, the CC50 in data set [6] was above 200 µM.
As for `CC(C)c1cc(C(=O)NCCN)c2cnn(C(C)C)c2n1` [Compound 10e, N-(2-aminoethyl)-1,6-bis(propan-2-yl)-1H-pyrazolo[3,4-b]pyridine-4-carboxamide], the EC50 in data set [1] worked out at 0.9 µM; in data set [4] (setting [7]), 0.6 µM; in data set [5] (setting [8]), 0.6 µM. This compound also displayed a CC50 in data set [3] (setting [9]) of 170 µM.
In the case of `CCN(CC)CCNC(=O)c1cc(C2CC2)nc2c1cnn2C(C)C` [Compound 7c, 6-cyclopropyl-N-[2-(diethylamino)ethyl]-1-(propan-2-yl)-1H-pyrazolo[3,4-b]pyridine-4-carboxamide], the values for the EC50 in data set [1], in data set [4] (setting [7]) and in data set [5] (setting [8]) were 0.5 µM, 0.3 µM and 0.4 µM, respectively. In addition, the “EC50 values in words” value in data set [2] is recorded as “submicromolar”.
For the compound `CNCCNC(=O)c1cc(C2CC2)nc2c1c(C)nn2C(C)(C)C` [Compound 18b, 1-tert-butyl-6-cyclopropyl-3-methyl-N-[2-(methylamino)ethyl]-1H-pyrazolo[3,4-b]pyridine-4-carboxamide], the EC50 in data set [1] worked out at 2.9 µM; in data set [4] (setting [7]) it was 8.4 µM; in data set [5] (setting [8]), 1.1 µM.
For `COCCNC(=O)c1cc(C2CC2)nc2c1cnn2C(C)C` [Compound 7a, 6-cyclopropyl-N-(2-methoxyethyl)-1-(propan-2-yl)-1H-pyrazolo[3,4-b]pyridine-4-carboxamide], the CC50 in data set [3] (setting [9]) was determined as 178 µM.
As for `CCC(C)n1ncc2c(C(=O)NCCN(C)C)cc(C3CC3)nc21` (stereo not drawn) [Compound 21, 1-(butan-2-yl)-6-cyclopropyl-N-[2-(dimethylamino)ethyl]-1H-pyrazolo[3,4-b]pyridine-4-carboxamide], the EC50 came out at 0.1 µM in data set [1], 0.1 µM in data set [4] (setting [7]) and 0.2 µM in data set [5] (setting [8]). Moreover, in data set [2], the “EC50 values in words” value is “low single-digit or submicromolar”.
For the compound `Cc1nn(C(C)(C)C)c2nc(C3CC3)cc(C(=O)NCCN(C)C)c12` [Compound 18a, 1-tert-butyl-6-cyclopropyl-N-[2-(dimethylamino)ethyl]-3-methyl-1H-pyrazolo[3,4-b]pyridine-4-carboxamide], the EC50 in data set [1] worked out at 1.8 µM; in data set [4] (setting [7]), 3.5 µM; in data set [5] (setting [8]) it was 0.8 µM. Further, in data set [3] (setting [9]), the CC50 turned out to be 45.2 µM.
Turning to `CC(C)n1ncc2c(C(=O)NCCN)cc(C3CC3)nc21` [Compound 7i, N-(2-aminoethyl)-6-cyclopropyl-1-(propan-2-yl)-1H-pyrazolo[3,4-b]pyridine-4-carboxamide], the EC50 is 0.9 µM in data set [1], 0.4 µM in data set [4] (setting [7]) and 0.4 µM in data set [5] (setting [8]).
Regarding `CC(CN)NC(=O)c1cc(C2CC2)nc2c1cnn2C(C)C` (stereo not drawn) [Compound 7j, N-(1-aminopropan-2-yl)-6-cyclopropyl-1-(propan-2-yl)-1H-pyrazolo[3,4-b]pyridine-4-carboxamide], the EC50 in data set [1] was 0.3 µM; in data set [4] (setting [7]) it was 0.6 µM; in data set [5] (setting [8]), 0.3 µM.
Consider `CC(C1CC1)n1ncc2c(C(=O)NCCN(C)C)cc(C3CC3)nc21` (stereo not drawn) [Compound 22, 6-cyclopropyl-1-(1-cyclopropylethyl)-N-[2-(dimethylamino)ethyl]-1H-pyrazolo[3,4-b]pyridine-4-carboxamide], for which the figures for the EC50 in data set [1], in data set [4] (setting [7]) and in data set [5] (setting [8]) were 1.9 µM, 0.2 µM and 0.7 µM, respectively. The “EC50 values in words” value in data set [2] was “low single-digit or submicromolar”.
Consider `CNCCCNC(=O)c1cc(C2CC2)nc2c1cnn2C(C)C` [Compound 7m, 6-cyclopropyl-N-[3-(methylamino)propyl]-1-(propan-2-yl)-1H-pyrazolo[3,4-b]pyridine-4-carboxamide], for which the results for the EC50 in data set [1], in data set [4] (setting [7]) and in data set [5] (setting [8]) were 1.6 µM, 5.3 µM and 1.7 µM, respectively. In data set [3] (setting [9]), this compound came in with a CC50 of 183 µM.
